ChEMBL document CHEMBL3580625, “The synthesis and functional evaluation of a mitochondria-targeted hydrogen sulfide donor, (10-oxo-10-(4-(3-thioxo-3H-1,2-dithiol-5-yl)phenoxy)decyl)triphenylphosphonium bromide (AP39)” (Medchemcomm, 2014)
Calls of active or inactive are those of the source. No cut-off for these calls is given here.

What was measured:
[1] = test system: hCMEC/D3; assay: Induction of H2S production in human CMEC/D3 cells after 1 hr by WSP-1 probe-based fluorescence assay; assay type: functional, cell-based
[2] = organism: Mus musculus; assay: Induction of H2S production in mouse bEND.3 cells at 100 nM after 1 hr by AzMC fluorescent probe-based inverted microscopic analysis; assay type: functional, cell-based
[3] = organism: Mus musculus; assay: Induction of H2S production in mitochondria of mouse bEND.3 cells at 100 nM after 1 hr by MitoTracker Red fluorescent probe-based inverted microscopic analysis; assay type: functional
[4] = Cytotoxicity against human CMEC/D3 cells up to 5 uM after 24 hrs by Alamar blue assay relative to vehicle-treated control; assay type: cell-based; conditions: hcmec/d3, 24 h
[5] = test system: hCMEC/D3; assay: Cytoprotective activity in human CMEC/D3 cells assessed as inhibition of SIN-1-induced oxidative stress-mediated loss of mitochondrial membrane potential at 100 nM preincubated for 1 hr followed by SIN-1 induction measured after 24 hrs by TMRM fluorescent probe-based fluorimetric analysis; assay type: functional, cell-based
[6] = test system: hCMEC/D3; assay: Cytoprotective activity in human CMEC/D3 cells assessed as inhibition of H2O2-induced oxidative stress-mediated loss of mitochondrial membrane potential at 100 nM preincubated for 1 hr followed by H2O2 induction measured after 24 hrs by TMRM fluorescent probe-based fluorimetric analysis; assay type: functional, cell-based
[7] = test system: hCMEC/D3; assay: Cytoprotective activity in human CMEC/D3 cells assessed as inhibition of 4-HNE-induced oxidative stress-mediated loss of mitochondrial membrane potential at 100 nM preincubated for 1 hr followed by 4-HNE induction measured after 24 hrs by TMRM fluorescent probe-based fluorimetric analysis; assay type: functional, cell-based
[8] = test system: hCMEC/D3; assay: Cytoprotective activity in human CMEC/D3 cells assessed as inhibition of SIN-1-induced mitochondrial production of reactive oxygen species at 100 nM preincubated for 1 hr followed by SIN-1 induction measured after 24 hrs by MitoSox Red probe-based fluorescence assay; assay type: functional, cell-based
[9] = test system: hCMEC/D3; assay: Cytoprotective activity in human CMEC/D3 cells assessed as inhibition of H2O2-induced mitochondrial production of reactive oxygen species at 100 nM preincubated for 1 hr followed by H2O2 induction measured after 24 hrs by MitoSox Red probe-based fluorescence assay; assay type: functional, cell-based
[10] = test system: hCMEC/D3; assay: Cytoprotective activity in human CMEC/D3 cells assessed as inhibition of 4-HNE-induced mitochondrial production of reactive oxygen species at 100 nM preincubated for 1 hr followed by 4-HNE induction measured after 24 hrs by MitoSox Red probe-based fluorescence assay; assay type: functional, cell-based
[11] = Cytotoxicity against human CMEC/D3 cells assessed as effect on mitochondrial membrane potential at 100 nM by TMRM fluorescent probe-based fluorimetric analysis; assay type: cell-based; conditions: hcmec/d3, 0.1 µM
[12] = Cytotoxicity against human CMEC/D3 cells assessed as effect on mitochondrial oxidant production at 100 nM by MitoSox Red probe-based fluorescence assay; assay type: cell-based; conditions: hcmec/d3, 0.1 µM
[13] = test system: hCMEC/D3; assay: Cytoprotective activity in human CMEC/D3 cells assessed as inhibition of rotenone-induced mitochondrial production of reactive oxygen species at 100 nM preincubated for 1 hr followed by rotenone induction by MitoSox Red probe-based fluorescence assay; assay type: functional, cell-based
[14] = test system: hCMEC/D3; assay: Cytoprotective activity in human CMEC/D3 cells assessed as inhibition of rotenone-mediated reduction of ATP level at 100 nM preincubated for 1 hr followed by rotenone induction measured after 18 hrs by firefly lantern luciferase reporter assay; assay type: functional, cell-based
[15] = test system: hCMEC/D3; assay: (§1) Cytoprotective activity in human CMEC/D3 cells assessed as inhibition of SIN-1-induced oxidative stress-mediated toxicity by measuring cell viability at 100 nM preincubated for 1 hr followed by SIN-1 induction measured after 24 hrs by Alamar blue assay; assay type: functional, cell-based
[16] = test system: hCMEC/D3; assay: (§2) Cytoprotective activity in human CMEC/D3 cells assessed as inhibition of H2O2-induced oxidative stress-mediated toxicity by measuring cell viability at 100 nM preincubated for 1 hr followed by H2O2 induction measured after 24 hrs by Alamar blue assay; assay type: functional, cell-based
[17] = test system: hCMEC/D3; assay: (§3) Cytoprotective activity in human CMEC/D3 cells assessed as inhibition of 4-HNE-induced oxidative stress-mediated toxicity by measuring cell viability at 100 nM preincubated for 1 hr followed by 4-HNE induction measured after 24 hrs by Alamar blue assay; assay type: functional, cell-based
[18] = test system: hCMEC/D3; assay: as §1, with “assay in presence of 5-(4-hydroxyphenyl)-3H-1,2-dithiole-3-thione” for “assay”; assay type: functional, cell-based
[19] = test system: hCMEC/D3; assay: as §2, with “assay in presence of 5-(4-hydroxyphenyl)-3H-1,2-dithiole-3-thione” for “assay”; assay type: functional, cell-based
[20] = test system: hCMEC/D3; assay: as §3, with “assay in presence of 5-(4-hydroxyphenyl)-3H-1,2-dithiole-3-thione” for “assay”; assay type: functional, cell-based

| Structure (SMILES) | Activity [1] | Activity [2] | Activity [3] | Activity [4] | inhibition [5] | inhibition [6] | inhibition [7] | inhibition [8] | inhibition [9] | inhibition [10] | Activity [11] | Activity [12] | inhibition [13] | inhibition [14] | inhibition [15] | inhibition [16] | inhibition [17] | inhibition [18] | inhibition [19] | inhibition [20] |
| --- | --- | --- | --- | --- | --- | --- | --- | --- | --- | --- | --- | --- | --- | --- | --- | --- | --- | --- | --- | --- |
| O=C(CCCCCCCCC[P+](c1ccccc1)(c1ccccc1)c1ccccc1)Oc1ccc(-c2cc(=S)ss2)cc1.[Br-] | Dose-dependent effect | Active | Active | Non-toxic | Active | Active | Active | Active | Active | Active | Non-toxic | Non-toxic | Active | Active | – | – | – | – | – | – |
| Oc1ccc(-c2cc(=S)ss2)cc1 | – | – | – | – | – | – | – | – | – | – | – | – | – | – | inactive | inactive | inactive | – | – | – |
| O=C(O)CCCCCCCCC[P+](c1ccccc1)(c1ccccc1)c1ccccc1 | – | – | – | – | – | – | – | – | – | – | – | – | – | – | inactive | inactive | inactive | inactive | inactive | inactive |
